Where “and” joins values, the source holds several entries; their conditions need not be identical. Identical values can stand only once.
Assays:
[1] = Stability of charged spiro and cyclopropenium compounds on storage; type: physicochemical
Text: The state of charge on discharge was 87%. […] Additionally, the calendar fade of the molecule was improved over certain previously reported high voltage organic radicals.

[2] = Crossover of active molecules through the cellulose dialysis membrane in an H-cell (UV-Vis); type: physicochemical
Procedure: The present example tested whether the membrane is amenable to large temperature excursions and to higher-voltage second generation compounds. The membrane was exposed to high (110° C.) and low (−20° C.) temperatures, as well as to strong reducing and oxidizing conditions, after which, dialysis was performed. Details are disclosed below. For example, the membrane was soaked in a solution of sodium naphthalenide (approximately −3.0 V vs Fc^0/+) and subsequently assembled an H-cell with this membrane. One chamber of the H-cell was filled with [PDI][TFSI]2 in acetonitrile (FIG. 1), while the other contained pure acetonitrile. [PDI][TFSI]2 was used for crossover experiments due to its smaller sized and strong absorption. […] Moreover, typical aqueous cells would not be operable at these extreme temperatures.
The present example next quantitatively assessed the impact of these treatments on the membrane's performance under battery operating conditions. […] To quantify the amount of crossover, UV-Vis spectra of the [Fc4] chamber was taken. […] Additionally, the low concentration cell above (FIG. 7D) was dismantled after cycling and checked for crossover. […] The key finding is that the cellulose based membrane is effective in organic solvents over long periods of time, stable to a >3 V voltage window, and stable to temperatures outside the range available for aqueous systems.
The membranes were soaked in water for 1 h before treatment. For high temperature, the membrane was rinsed with propylene carbonate, placed in propylene carbonate and heated to 110° C. overnight in a vial. For low temperature, the membrane was rinsed with acetonitrile and placed in acetonitrile in a vial in a −20° C. freezer overnight. For oxidizing conditions, the membrane was rinsed with acetonitrile and stirred in nitrosonium tetrafluoroborate (NOBF4, 0.1 M in acetonitrile) for 4 h. For reducing conditions, the membrane was rinsed with anhydrous diglyme, placed in anhydrous diglyme, and sparged for 3 h before being brought into a glove box. It was rinsed in a fresh solution of diglyme before being added to a solution of sodium naphthalenide (0.1 M in diglyme) in a glove box for 1 h. The sodium naphthalenide was a persistent dark green the entire time indicating no quenching of the reagent. A control where the membrane was only soaked in water and rinsed with acetonitrile was also performed.
Following these conditions, [PDI][TFSI]2 (20 mg) and LiPF6 (60 mg) in acetonitrile were added to one side of the H-cell. […] The blank side was colorless for all conditions except nitrosonium tetrafluoroborate, where a minimal amount of fluorescence could be seen. The control H-cell was monitored for crossover for a further 12 days, at which point the absorbance was measured by UV-visible spectroscopy and the amount determined using the molar absorptivity of [PDI][TFSI]2 (0.05% over 12 days, FIG. 10 and FIG. 11).
After these qualitative experiments, membranes treated to the same four conditions as mentioned above were brought into the glovebox in degassed anhydrous solvent and used for cycling experiments with 19 mg [PDI][TFSI]2 and 9 mg [Fc4] in 0.5M LiPF6 (FIG. 9C). The cells were run at a 1 C current (0.7 mA) for 12 cycles. At the end of the experiment, the UV-visible spectrum was taken of the [Fc4] side. […]

[3] = Solubility / maximum concentration of the electrolytes in organic solvent
[4] = acetonitrile vs pure acetonitrile, stirring overnight
[5] = cycling H-cell, 1 C, 12 cycles, 0.5 M LiPF6, UV-Vis of [Fc4] side

spiro-ethylphthalimide [spirophthalimide]
degradation in charged state (1H NMR) ([1]; 1 week of charge): No degradation

dimethylpiperidine cyclopropenium
persistence of charged state ([1]; 3 months out of glovebox): still charged

perylene diimide trifluoromethane sulfonimide [[PDI][TFSI]2]
visible crossover, NOBF4-treated membrane [2, 4]: slight fluorescence from crossover | visible crossover, sodium naphthalenide-treated membrane [2, 4]: no detectable crossover | crossover, control membrane ([2]; control H-cell, acetonitrile with LiPF6, over 12 days): 0.05% | crossover, NOBF4-treated (oxidizing) membrane [2, 5]: 1.25% | crossover, cold (−20° C.) treated membrane [2, 5]: < 0.05% and 0.032% | crossover, hot (110° C.) treated membrane [2, 5]: < 0.05% and 0.028% | crossover, sodium naphthalenide-treated (reducing) membrane [2, 5]: < 0.05% and 0.038% | crossover after long-term cycling ([2]; low concentration cell dismantled after >30 days and >250 cycles): 0.2% | concentration accessible in acetonitrile [3]: 1 M electron

From US11289729B2, “Redox flow batteries and compounds for battery application” (THE TRUSTEES OF COLUMBIA UNIVERSITY IN THE CITY OF NEW YORK, priority 2017, dated 2022)
